One compound from ChEMBL document CHEMBL6087453, “Minimalist Natural ORPphilin Macarangin B Delineates OSBP Biological Function” (J Med Chem, 2025) can be followed below.

SMILES strings stand for the structures. pIC50, pKd: −log10 of the molar value.

Data set [1] has as its target T1, Oxysterol-binding protein 1 (Homo sapiens, UniProt P22059).
T1 sequence (P22059 whole entry): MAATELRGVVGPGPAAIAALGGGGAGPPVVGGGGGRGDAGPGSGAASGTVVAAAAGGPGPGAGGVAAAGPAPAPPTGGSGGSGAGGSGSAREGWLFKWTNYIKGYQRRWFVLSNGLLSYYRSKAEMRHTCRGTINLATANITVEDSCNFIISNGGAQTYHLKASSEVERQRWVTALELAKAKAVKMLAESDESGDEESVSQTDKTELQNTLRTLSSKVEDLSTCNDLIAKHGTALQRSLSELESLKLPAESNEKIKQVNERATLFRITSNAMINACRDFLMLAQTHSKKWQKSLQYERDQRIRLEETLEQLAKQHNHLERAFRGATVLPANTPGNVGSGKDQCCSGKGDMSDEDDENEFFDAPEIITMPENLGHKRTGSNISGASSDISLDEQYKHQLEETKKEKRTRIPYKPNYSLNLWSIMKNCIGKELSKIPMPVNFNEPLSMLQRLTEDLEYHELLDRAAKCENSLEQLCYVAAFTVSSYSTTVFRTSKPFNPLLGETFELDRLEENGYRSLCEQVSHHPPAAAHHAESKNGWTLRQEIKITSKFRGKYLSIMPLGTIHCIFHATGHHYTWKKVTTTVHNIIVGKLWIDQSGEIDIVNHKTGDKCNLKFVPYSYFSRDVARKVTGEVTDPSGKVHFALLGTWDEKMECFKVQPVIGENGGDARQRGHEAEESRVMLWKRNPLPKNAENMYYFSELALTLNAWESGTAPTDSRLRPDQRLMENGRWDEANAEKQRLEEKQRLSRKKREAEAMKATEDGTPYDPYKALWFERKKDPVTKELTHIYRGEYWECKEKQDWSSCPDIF
As to the kind of experiment: Binding affinity to OSBP (unknown origin) ORD domain assessed as dissociation constant by FRET assay.

The subject of data set [2] is A549. Put plainly: cells. The following applies: Homo sapiens, A549, 72 h.
Description: Cytotoxicity against human A549 cells assessed as inhibition of cell proliferation incubated for 72 hrs by celltiter-glo assay
The test system of data set [3] is MDA-MB-231. As to the kind of experiment: cells. Conditions: Homo sapiens, MDA-MB-231, 72 h.
Description: Cytotoxicity against human MDA-MB-231 cells assessed as inhibition of cell proliferation incubated for 72 hrs by celltiter-glo assay
Data set [4] concerns MCF7. As to the kind of experiment: cells. The following applies: Homo sapiens, MCF7, 72 h.
Description: Cytotoxicity against human MCF7 cells assessed as inhibition of cell proliferation incubated for 72 hrs by celltiter-glo assay
The subject of data set [5] is PC-3. Put plainly: cells. Conditions: Homo sapiens, PC-3, 72 h.
Description: Cytotoxicity against human PC-3 cells assessed as inhibition of cell proliferation incubated for 72 hrs by celltiter-glo assay
Data set [6] can be described thus: in vitro. The following applies: human, RPE-1 cells (TERT-RPE1).
Description: Cytotoxicity against human RPE-1 cells assessed as inhibition of cell proliferation incubated for 72 hrs by celltiter-glo assay
Data set [7] in a line: in vitro. The following applies: human, MRC5 cells.
Description: Cytotoxicity against human MRC5 cells assessed as inhibition of cell proliferation incubated for 72 hrs by celltiter-glo assay
Data set [8] is described as follows: in vitro. Conditions: human, HeLa cells.
Description: Cytotoxicity against human HeLa cells assessed as inhibition of cell proliferation incubated for 72 hrs by celltiter-glo assay

What is called pKd is −log10 of the Kd, conventionally taken in molar units. What is called pIC50 is −log10 of the IC50, conventionally taken in molar units. A higher pIC50 goes with a low IC50. The IC50 is the concentration that gives 50% inhibition. Read a low IC50 as inhibition by little substance.

Regarding `CC(C)=CCc1c(O)cc(/C=C/c2cc(O)c3c(c2)C[C@@H]2C(C)(C)[C@H](O)CC[C@@]2(C)O3)cc1O` [SCHWEINFURTHIN G], the pKd in data set [1] was 7.66. Also, the negative logarithm of the IC50 (pIC50) in data set [2] is 6.30; in data set [3], 6.52; in data set [4], 6.00; in data set [5], 6.52. Further, the IC50 at 72 h in data set [6] amounted to 400 nM; in data set [7], 300 nM; in data set [8], 100 nM.
